ChEMBL document CHEMBL1150600, “Callyspongynic acid, a polyacetylenic acid which inhibits alpha-glucosidase, from the marine sponge Callyspongia truncata” (J Nat Prod, 2002)
Active and inactive are the calls of the source. The calls are words filed in the database; no cut-off is given here.

Key:
[1] = test system: alpha-glucosidase (Saccharomyces cerevisiae); experiment: Inhibition of alpha-glucosidase at 100 ug/ml after 30 mins
[2] = molecular target: T1, Cytosolic beta-glucosidase (Homo sapiens) (UniProt Q9H227); experiment: Inhibition of beta-glucosidase at 100 ug/ml
T1 sequence (whole entry): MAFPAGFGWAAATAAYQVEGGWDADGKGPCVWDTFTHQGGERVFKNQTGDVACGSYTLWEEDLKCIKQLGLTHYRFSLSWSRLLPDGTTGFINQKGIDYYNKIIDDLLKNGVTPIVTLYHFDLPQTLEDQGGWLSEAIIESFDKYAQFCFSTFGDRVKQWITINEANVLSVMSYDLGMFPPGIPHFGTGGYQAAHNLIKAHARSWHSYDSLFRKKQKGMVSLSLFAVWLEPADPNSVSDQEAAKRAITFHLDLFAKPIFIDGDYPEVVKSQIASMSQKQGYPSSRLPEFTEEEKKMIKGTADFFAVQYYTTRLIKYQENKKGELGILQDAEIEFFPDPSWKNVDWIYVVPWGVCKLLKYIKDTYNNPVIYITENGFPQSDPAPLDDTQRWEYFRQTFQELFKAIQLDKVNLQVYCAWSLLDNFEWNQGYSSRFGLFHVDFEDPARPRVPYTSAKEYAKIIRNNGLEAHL

[3] = molecular target: T2, Beta-galactosidase (Homo sapiens) (UniProt P16278); experiment: Inhibition of beta-galactosidase at 100 ug/ml
T2 sequence (whole entry): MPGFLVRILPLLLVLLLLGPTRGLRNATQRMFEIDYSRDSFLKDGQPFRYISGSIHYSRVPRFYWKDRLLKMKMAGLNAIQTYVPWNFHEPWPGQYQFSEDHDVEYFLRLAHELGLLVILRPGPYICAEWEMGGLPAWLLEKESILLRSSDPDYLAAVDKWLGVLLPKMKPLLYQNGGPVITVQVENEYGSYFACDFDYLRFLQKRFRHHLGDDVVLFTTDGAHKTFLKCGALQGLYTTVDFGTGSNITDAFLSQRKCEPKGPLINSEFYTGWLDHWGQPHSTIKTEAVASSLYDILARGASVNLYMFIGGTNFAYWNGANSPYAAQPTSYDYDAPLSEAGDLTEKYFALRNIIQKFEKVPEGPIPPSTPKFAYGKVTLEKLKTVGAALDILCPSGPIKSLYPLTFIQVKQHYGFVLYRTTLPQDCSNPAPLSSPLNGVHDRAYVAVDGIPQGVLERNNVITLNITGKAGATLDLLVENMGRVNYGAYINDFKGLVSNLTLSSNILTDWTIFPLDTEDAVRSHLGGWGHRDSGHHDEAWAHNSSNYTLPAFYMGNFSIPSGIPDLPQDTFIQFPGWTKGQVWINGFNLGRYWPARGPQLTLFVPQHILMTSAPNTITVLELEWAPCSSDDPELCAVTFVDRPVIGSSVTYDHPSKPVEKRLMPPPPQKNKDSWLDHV

[4] = molecular target: Prothrombin (Homo sapiens) (UniProt P00734); experiment: Inhibition of thrombin at 100 ug/ml
[5] = Inhibition of trypsin at 100 ug/ml

| SMILES | Activity [1] | Activity [2] | Activity [3] | Activity [4] | Activity [5] |
| --- | --- | --- | --- | --- | --- |
| C#C/C=C\CCCC#CC#CCCCCCC/C=C\C#C | inactive | – | – | – | – |
| C#C[C@@H](O)/C=C/CCCCCC#CC#CCCCC#CCCCC#CCCCCCC#CC(=O)O | – | inactive | inactive | inactive | inactive |
| C#C[C@@H](O)/C=C/CCCCCC#CC#CCCCC#CCCCC#CCCCCCC#CC(=O)OC | inactive | – | – | – | – |
